Measurements published in paper PMC10627047, “Flavone-based dual PARP-Tubulin inhibitor manifesting efficacy against endometrial cancer” (Journal of Enzyme Inhibition and Medicinal Chemistry, 2023).

Legend:
[1] = tested on: Ishikawa cell lines; assay: In-vitro cytotoxicity (MTT cell viability assay); assay type: cell-based; details: Homo sapiens; Ishikawa cell lines, MTT, 48 h incubation, mean ± SD, at least three experiments; read-out: IC50 values (Ishikawa cell lines, µM ± SD), in-vitro growth inhibition
Experimental: The cell growth inhibitory effects of the synthesised compounds were evaluated against Ishikawa cell lines. […] Forth, the synthesised compounds bearing a substituted phenyl ring at position 2 of the biaryl arm bearing benzopyrans were profiled for the cytotoxic effects. Noteworthy to mention that diverse substitutions with varied electronic effects viz fluorine (−I, +R), methoxy (−I, +R), and nitro (−I and − R) were made on the phenyl ring (position 2 of benzopyran). Also, the trimethoxy phenyl ring well established as an imperative structural feature of tubulin inhibitors was tethered to the benzopyran scaffold (20, 21).
Ishikawa cells (a human endometrial carcinoma of the epithelial cell) were kindly gifted by Dr. Geetanjali Sachdeva and Dr. Uddhav Chaudhari of National Institute for Research In Reproductive and Child Health (NIRRCH), Mumbai. […] The cells were maintained in RPMI medium supplemented with 10% Foetal bovine serum (FBS) and 100 IU/mL penicillin.
Mitochondrial activity was evaluated by MTT assay.[59] This assay is based on enzymatic reduction of the yellow-colored MTT dye to purple-colored formazan crystals by a variety of mitochondrial and cytosolic enzymes that are operational in viable cells. Briefly, […] (3000 cells/well) were seeded in 100 µL of medium into a 96-well plate and left to settle in a CO2 incubator. […] Then 150 μL of DMSO was added to each well to dissolve the formazan crystals. The optical density (OD) of each well was recorded using a microplate reader at a wavelength of 570 nm. The percentages of cell viability and growth inhibition were calculated according to the following equations. Cell viability (%) = [(OD of treated cells-OD of blank)/(OD of control-OD of blank) ×100].

[2] = tested on: Ishikawa cells; assay: Acridine orange staining, autophagy; assay type: cell-based, human; details: Ishikawa cells, 0.1, 0.5 and 1 µM
Experimental: Compound 14 was evaluated for its ability to induce autophagy by acridine orange staining assay. […] This shift towards red fluorescence represents an elevation in autophagic flux, reflecting an active process of cellular degradation and recycling.
The Autophagy induction ability of compound 14 was assessed by acridine orange staining which is used to measure the autophagic acidic vesicular organnelles. Ishikawa cell were seeded in a six-well plate and treated with compound 14 for 48 h. Incubation of the cells was done with 1 mg/mL Acridine orange (Cat no. A9231) before the termination of the experiment. Cells were then washed with PBS and then analysed with a fluorescence microscope. […] A9231.

[3] = tested on: Ishikawa cells; assay: Mitochondrial membrane potential (rhodamine 123 staining); assay type: cell-based, human; details: Ishikawa cells, 0.1, 0.5 and 1 μM, 24 h
Experimental: Mitochondrial membrane potential was measured by rhodamine-123 (RH-123) staining. Ishikawa cells were treated at 0.1, 0.5, and 1 μM of compound 14. Rhodamine dyes accumulate within active and polarised mitochondria under physiological conditions, resulting in robust fluorescence signals. A decline in rhodamine fluorescence intensity is observed when the dyes fail to accumulate within the mitochondria. This happens when the mitochondrial transmembrane potential is compromised. […] The decreased fluorescence patterns associated with apoptotic cell death indicate progressive dissipation of the mitochondrial transmembrane potential (Figure 12).
Rhodamine staining was employed to investigate apoptosis induced by compound 14 in Ishikawa cells. Under physiological conditions, rhodamine dyes are known to accumulate within active and polarised mitochondria, resulting in robust fluorescence signals. However, when the mitochondrial transmembrane potential is compromised the dyes fail to accumulate within the mitochondria, leading to a decline in rhodamine fluorescence intensity. The Rhodamine staining protocol followed was as follows: Ishikawa cells were treated at 0.1, 0.5, and 1 μM for 24 h, and RH-123 (1 μg) (Cat No. R8004) was added 30 min before the termination of the experiment and then washed with PBS before analysis on a fluorescence microscope.[61]

Structure (SMILES): O=c1cc(-c2ccc(F)cc2)oc2cc(-c3ccoc3)ccc12 [Compound 14, 2–(4-fluorophenyl)-7-(furan-3-yl)-4H-chromen-4-one]
- IC50 [1]: 1 ± 0.4 µM
- Autophagy induction (acridine orange staining) [2]: induces autophagy by increasing autophagic flux in a concentration-dependent manner
- Mitochondrial membrane potential (rhodamine 123 fluorescence) [3]: reduction in rhodamine fluorescence in a concentration-dependent manner
